{"source": "PubChem BioAssay AID179", "about": "(DTP/NCI, 2004)", "system": "CEM cells HIV-1 protection, formazan growth assay", "test": "NCI AIDS Antiviral Assay", "settings": "for IC50: measured here: growth of uninfected CEM cells", "summary_of_the_method": "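Category rules: moderately active means at least 50% protection on retest, and confirmed active means 100% protection reproducibly. The underlying data came from a formazan growth assay in HIV-1-infected CEM cells.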", "note": "Activity calls are given as the source filed them.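 Rule for the calls: active = compounds giving half or more protection of infected cells from virus-caused growth loss, again on retest; inactive = the rest.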", "data": [{"smiles": "NC(CSCCCS(=O)(=O)O)C(=O)O", "note": "(stereo unspecified)", "values": [{"measurement": "EC50", "result": "> 200", "unit": "µM"}, {"measurement": "IC50", "result": "> 200", "unit": "µM"}]}, {"smiles": "CP1(=O)CC(=O)CCCCC(=O)C1", "values": [{"measurement": "outcome", "result": "inactive"}]}, {"smiles": "C=C1C[C@]2(C)c3ccccc3NC(=O)[C@H]12", "values": [{"measurement": "EC50", "result": 162, "unit": "µM"}, {"measurement": "IC50", "result": "> 200", "unit": "µM"}]}, {"smiles": "COc1ccc(N=C/C=C/C(=C/COC(C)=O)OC(C)=O)cc1", "values": [{"measurement": "EC50", "result": "> 200", "unit": "µM"}, {"measurement": "IC50", "result": 11.5, "unit": "µM"}]}, {"smiles": "COc1nc2c(c(=O)[nH]1)N=C(c1ccccc1)CC(c1ccccc1)N2", "note": "(stereo unspecified)", "values": [{"measurement": "EC50", "result": "> 200", "unit": "µM"}, {"measurement": "IC50", "result": "> 200", "unit": "µM"}]}, {"smiles": "COC(=O)CC1NC(=O)C1C1(C)OCCO1", "note": "(stereo unspecified)", "values": [{"measurement": "EC50", "result": "> 251", "unit": "µM"}, {"measurement": "IC50", "result": "> 251", "unit": "µM"}]}, {"smiles": "C/C(CC(=O)Nc1ccc(C)c(C)c1)=N\\N(c1ccccc1)c1ccccc1", "values": [{"measurement": "EC50", "result": "> 97.7", "unit": "µM"}, {"measurement": "IC50", "result": "> 97.7", "unit": "µM"}]}, {"smiles": "O=c1ncc2ccc([N+](=O)[O-])cc2[nH]1", "values": [{"measurement": "EC50", "result": "> 186", "unit": "µM"}, {"measurement": "IC50", "result": 148, "unit": "µM"}]}, {"smiles": "NC1c2ccccc2Nc2ccccc21", "values": [{"measurement": "EC50", "result": "> 182", "unit": "µM"}, {"measurement": "IC50", "result": 1.29, "unit": "µM"}]}, {"smiles": "CC1(C)CC2C=C(C=O)C3(C=O)CC3(C)C2C1", "note": "(stereo unspecified)", "values": [{"measurement": "EC50", "result": "> 3.47", "unit": "µM"}, {"measurement": "IC50", "result": 0.501, "unit": "µM"}]}, {"smiles": "CC(C)c1cccc(C(C)C)c1NC(=O)C(=O)C(C(=O)c1ccc2ccccc2c1)C1OC(=O)c2ccccc21", "note": "(stereo unspecified)", "values": [{"measurement": "EC50", "result": "> 67.6", "unit": "µM"}, {"measurement": "IC50", "result": 34.7, "unit": "µM"}]}, {"smiles": "CCCNC(=O)N1CC(CN2CCN(c3ccccc3)CC2)O/C1=N/C(=O)Nc1ccccc1", "note": "(stereo unspecified)", "values": [{"measurement": "EC50", "result": "> 200", "unit": "µM"}, {"measurement": "IC50", "result": 77.6, "unit": "µM"}]}, {"smiles": "CN(C)CCc1c2c(nc3ccccc13)C(=O)c1cccnc1C2=O", "values": [{"measurement": "outcome", "result": "inactive"}]}, {"smiles": "CC(C(=O)O)c1ccc(C(=O)c2cccs2)cc1", "note": "(stereo unspecified)", "values": [{"measurement": "EC50", "result": "> 200", "unit": "µM"}, {"measurement": "IC50", "result": "> 200", "unit": "µM"}]}, {"smiles": "CC(C)(Oc1ccc(Cl)cc1)C(=O)N(C(=O)N1CCCCC1)c1ccccc1", "values": [{"measurement": "EC50", "result": "> 200", "unit": "µM"}, {"measurement": "IC50", "result": 13.2, "unit": "µM"}]}, {"smiles": "Cc1oc2nc(N(C)C)nc(NN)c2c1C", "values": [{"measurement": "outcome", "result": "inactive"}]}, {"smiles": "C[n+]1c(-c2ccc(/C=N/Nc3ccnc(N/N=C/c4ccc(-c5cn6ccccc6[n+]5C)cc4)n3)cc2)cn2ccccc21", "values": [{"measurement": "EC50", "result": 4.68, "unit": "µM"}, {"measurement": "IC50", "result": 9.77, "unit": "µM"}]}, {"smiles": "CC1CCCc2c1c1ccc3c(O)cccc3c1oc2=O", "note": "(stereo unspecified)", "values": [{"measurement": "EC50", "result": "> 7.08", "unit": "µM"}, {"measurement": "IC50", "result": "> 7.08", "unit": "µM"}]}, {"smiles": "c1ccc(COc2ccc(C[P+](c3ccccc3)(c3ccccc3)c3ccccc3)cc2)cc1", "values": [{"measurement": "EC50", "result": "> 20", "unit": "µM"}, {"measurement": "IC50", "result": 0.324, "unit": "µM"}]}, {"smiles": "NC(=S)NN=C1Cc2ccccc2C1", "values": [{"measurement": "EC50", "result": "> 200", "unit": "µM"}, {"measurement": "IC50", "result": 145, "unit": "µM"}]}, {"smiles": "O=C(Nc1cccc2ccccc12)N1CCCC(Br)C1", "note": "(stereo unspecified)", "values": [{"measurement": "EC50", "result": "> 200", "unit": "µM"}, {"measurement": "IC50", "result": 195, "unit": "µM"}]}, {"smiles": "CCOC(=O)c1c(N2CCCC2)[nH]c(=O)c(C(c2cccs2)c2c(O)c(C(=O)OCC)c(N3CCCC3)[nH]c2=O)c1O", "values": [{"measurement": "EC50", "result": "> 200", "unit": "µM"}, {"measurement": "IC50", "result": 141, "unit": "µM"}]}, {"smiles": "Cc1ccc(-c2n[nH]c(CC#N)n2)cc1", "values": [{"measurement": "EC50", "result": "> 200", "unit": "µM"}, {"measurement": "IC50", "result": "> 200", "unit": "µM"}]}, {"smiles": "C[C@]12CC[C@H](OS(=O)(=O)O)CC1CCC1C2CC[C@@]2(C)C1CC[C@@H]2CO", "note": "(stereo partly specified)", "values": [{"measurement": "EC50", "result": "> 60.3", "unit": "µM"}, {"measurement": "IC50", "result": "> 60.3", "unit": "µM"}]}, {"smiles": "O=C(NCCCCNCCCNC(=O)C(F)(F)F)C(F)(F)F", "values": [{"measurement": "EC50", "result": "> 200", "unit": "µM"}, {"measurement": "IC50", "result": "> 200", "unit": "µM"}]}, {"smiles": "CC(C)(C)[Si](C)(C)OCC1OC(n2ccc(=O)[nH]c2=O)C(O[Si](C)(C)C(C)(C)C)[C@@]12N[C@H](C(N)=O)CS2", "note": "(stereo partly specified)", "values": [{"measurement": "EC50", "result": "> 200", "unit": "µM"}, {"measurement": "IC50", "result": 8.91, "unit": "µM"}]}, {"smiles": "CSc1c(C(N)=S)c(N)nn1-c1ccccc1", "values": [{"measurement": "EC50", "result": "> 200", "unit": "µM"}, {"measurement": "IC50", "result": 155, "unit": "µM"}]}, {"smiles": "O=c1ccc2ccccc2n1Cc1ccc2ccccc2n1", "values": [{"measurement": "EC50", "result": "> 200", "unit": "µM"}, {"measurement": "IC50", "result": 148, "unit": "µM"}]}, {"smiles": "COc1ccc(/C=C/C(=O)c2ccc3c(c2)OCO3)cc1OC", "values": [{"measurement": "EC50", "result": "> 43.7", "unit": "µM"}, {"measurement": "IC50", "result": 20.9, "unit": "µM"}]}, {"smiles": "O=C(N/C(=C\\c1ccccc1Cl)c1nc2ccccc2[nH]1)c1ccccc1", "values": [{"measurement": "outcome", "result": "inactive"}]}, {"smiles": "Cc1ccc(C2=C(c3ccc(C)cc3)C(c3ccc(C)cc3)=C(c3ccc(C)cc3)C2=O)cc1", "values": [{"measurement": "EC50", "result": "> 16.2", "unit": "µM"}, {"measurement": "IC50", "result": "> 16.2", "unit": "µM"}]}, {"smiles": "NC(CSS(=O)(=O)O)=NCCCC1CCCCC1", "values": [{"measurement": "EC50", "result": "> 200", "unit": "µM"}, {"measurement": "IC50", "result": 102, "unit": "µM"}]}, {"smiles": "C=C1c2nc3ccccc3n2C=C(c2ccc(Cl)cc2)N1c1ccc(OC)cc1", "values": [{"measurement": "EC50", "result": "> 200", "unit": "µM"}, {"measurement": "IC50", "result": 18.6, "unit": "µM"}]}, {"smiles": "COC(=O)C12C(=O)O[C@H](C)C1(O)C(C)C(=O)N2C", "note": "(stereo partly specified)", "values": [{"measurement": "outcome", "result": "inactive"}]}, {"smiles": "CN(CCN(C)CC(=O)O)CC(=O)O", "values": [{"measurement": "EC50", "result": "> 617", "unit": "µM"}, {"measurement": "IC50", "result": 550, "unit": "µM"}]}, {"smiles": "COc1ccc(NC(=O)CCc2cc(C(C)(C)C)n[nH]2)cc1", "values": [{"measurement": "EC50", "result": "> 832", "unit": "µM"}, {"measurement": "IC50", "result": "> 832", "unit": "µM"}]}, {"smiles": "N#CCc1nc2c(s1)C(=O)c1ccccc1C2=O", "values": [{"measurement": "EC50", "result": "> 7.94", "unit": "µM"}, {"measurement": "IC50", "result": "> 7.94", "unit": "µM"}]}, {"smiles": "C#CC1NC(=O)C1N(CC)CC", "note": "(stereo unspecified)", "values": [{"measurement": "outcome", "result": "inactive"}]}, {"smiles": "Cn1cnc([N+](=O)[O-])c1Sc1nccc(=O)[nH]1", "values": [{"measurement": "EC50", "result": "> 977", "unit": "µM"}, {"measurement": "IC50", "result": "> 200", "unit": "µM"}]}, {"smiles": "O=[N+]([O-])c1ccccc1Nc1ccccc1[N+](=O)[O-]", "values": [{"measurement": "EC50", "result": "> 52.5", "unit": "µM"}, {"measurement": "IC50", "result": "> 52.5", "unit": "µM"}]}, {"smiles": "O=C1c2cc(Cl)ccc2NC(=NCCCl)C2CSCN12", "note": "(stereo unspecified)", "values": [{"measurement": "EC50", "result": "> 200", "unit": "µM"}, {"measurement": "IC50", "result": "> 200", "unit": "µM"}]}, {"smiles": "Cc1csc(-n2nc(C)cc2C)n1", "values": [{"measurement": "EC50", "result": "> 200", "unit": "µM"}, {"measurement": "IC50", "result": "> 200", "unit": "µM"}]}, {"smiles": "C=CCc1ccc(O)c(-c2cc(C3Oc4c(-c5cc(CC=C)ccc5O)cc(O)cc4[C@@H]3CO)ccc2O)c1", "note": "(stereo partly specified)", "values": [{"measurement": "EC50", "result": "> 100", "unit": "µM"}, {"measurement": "IC50", "result": 91.2, "unit": "µM"}]}, {"smiles": "Cn1c[n+](C2OC(CO)C(O)C2O)c2nc([O-])[nH]c(=O)c21", "note": "(stereo unspecified)", "values": [{"measurement": "EC50", "result": "> 17.4", "unit": "µM"}, {"measurement": "IC50", "result": 9.77, "unit": "µM"}]}, {"smiles": "COc1cccc(NC(=O)CSc2nnc(Cc3ccccc3)o2)c1", "values": [{"measurement": "EC50", "result": "> 100", "unit": "µM"}, {"measurement": "IC50", "result": "> 100", "unit": "µM"}]}, {"smiles": "COC1(OC)C2C=CC1C([C@](C)(N)CO)C2", "note": "(stereo partly specified)", "values": [{"measurement": "EC50", "result": "> 1100", "unit": "µM"}, {"measurement": "IC50", "result": "> 1100", "unit": "µM"}]}]}
